From publication PMC9657321, “Identification of Boronate-Containing Diarylpyrimidine Derivatives as Novel HIV-1 Non-Nucleoside Reverse Transcriptase Inhibitors” (Molecules, 2022)
Like-named read-outs stand apart in the source and are kept apart here.

Columns and labels:
[1] = tested on: HIV-1 E138K mutant strain; experiment: microbe, parasite or virus in culture; format: cell-based; details: for EC50: Human immunodeficiency virus 1, MT4, read-out: EC50 E138K; for RF E138K: ratio EC50 (resistant viral strain)/EC50 (wild-type viral strain)
Description: (§1) All data were calculated using the median optical density (OD) value of three wells.

[2] = tested on: HIV-1 F227L + V106A mutant strain; experiment: microbe, parasite or virus in culture; format: cell-based; details: for EC50: Human immunodeficiency virus 1, MT4, read-out: EC50 F227L + V106A; for RF F227L + V106A: ratio EC50 (resistant viral strain)/EC50 (wild-type viral strain)
Description: as §1

[3] = tested on: HIV-1 K103N mutant strain; experiment: microbe, parasite or virus in culture; format: cell-based; details: for EC50: Human immunodeficiency virus 1, MT4, read-out: EC50 K103N, MT-4 cells, K103N, MTT method; for RF K103N: ratio EC50 (resistant viral strain)/EC50 (wild-type viral strain)
Description: as §1

[4] = tested on: HIV-1 L100I mutant strain; experiment: microbe, parasite or virus in culture; format: cell-based; details: for EC50: Human immunodeficiency virus 1, MT4, read-out: EC50 L100I; for RF L100I: ratio EC50 (resistant viral strain)/EC50 (wild-type viral strain)
Description: as §1

[5] = tested on: HIV-1 Y181C mutant strain; experiment: microbe, parasite or virus in culture; format: cell-based; details: for EC50: Human immunodeficiency virus 1, MT4, read-out: EC50 Y181C, MT-4 cells, Y181C, MTT method; for RF Y181C: ratio EC50 (resistant viral strain)/EC50 (wild-type viral strain)
Description: as §1

[6] = tested on: HIV-1 Y188L mutant strain; experiment: microbe, parasite or virus in culture; format: cell-based; details: for EC50: Human immunodeficiency virus 1, MT4, read-out: EC50 Y188L; for RF Y188L: ratio EC50 (resistant viral strain)/EC50 (wild-type viral strain)
Description: as §1

[7] = tested on: HIV-1 double-mutant strain RES056 (K103N/Y181C); experiment: microbe, parasite or virus in culture; format: cell-based; details: for EC50: Human immunodeficiency virus 1, MT4, read-out: EC50 RES056; for RF RES056: ratio EC50(resistant strain)/EC50(wild-type strain); for SI RES056: selectivity index, ratio CC50/EC50, RES056
Description: as §1

[8] = tested on: wild-type HIV-1 (IIIB); experiment: microbe, parasite or virus in culture; format: cell-based; details: for EC50: Human immunodeficiency virus 1, MT4, MT-4 cells, HIV-1 IIIB, MTT method; for RF IIIB: ratio EC50(resistant strain)/EC50(wild-type strain); for SI IIIB: selectivity index, ratio CC50/EC50, IIIB
Description: as §1

[9] = Cytotoxicity in mock-infected MT-4 cells, MTT method; format: cell-based; details: human
Description: The 3-(4,5-dimethylthiazol-2-yl)-2,5-diphenyltetrazolium bromide (MTT) method was used to evaluate the antiviral activity and cytotoxicity of the synthesized compounds as previously described. At the beginning of each experiment, stock solutions (10× final concentration) of test compounds were added in 25 μL volumes to two series of triplicate wells for allowing the simultaneous evaluation of their effects on mock- and HIV-infected cells. The serial 5-fold dilutions of the compounds were made in flat-bottomed 96-well microtiter trays directly, including untreated control HIV-1 and mock infected cell samples for each sample using a Biomek 3000 robot (Beckman Instruments, Fullerton, CA, USA). HIV-1 (IIIB) and mutant HIV-1 strains (RES056, F227L/V106A, L100I, K103N, E138K, Y181C, and Y188L) stock (50 μL at 100–300 CCID50) (50% cell culture infectious dose) or culture medium was added to either the infected or mock-infected wells of the microtiter tray. Mock-infected cells were used to evaluate the effect on uninfected cells to assess the cytotoxicity of the test compounds. Exponentially growing MT-4 cells were centrifuged for […] at 1000 rpm (Eppendorf 5424, Hamburg, Germany) and then the supernatant was discarded. The MT-4 cells were resuspended at 6 × 10^5 cells/mL and 50 μL aliquots were transferred to the microtiter tray wells. At 5 days after infection, the viability of mock- and HIV-infected cells was determined spectrophotometrically by means of MTT assay.
The MTT assay is based on the reduction of yellow-colored MTT (Acros Organics, Geel, Belgium) by mitochondrial dehydrogenase of metabolically active cells to form a blue-purple formazan. The absorbances were read in an eight-channel computer-controlled photometer at the wavelengths of 540 and 690 nm. All data were calculated using the median optical density (OD) value of three wells.

[10] = target: T1, recombinant wild-type HIV-1 RT enzyme (Human immunodeficiency virus type 1 group M subtype B, UniProt P03366); experiment: HIV-1 RT inhibition assay (ELISA, Roche RT assay kit); format: biochemical
T1 construct: recombinant wild-type HIV-1 RT enzyme; purchased Roche (Basel, Switzerland)
Description: The HIV-1 RT inhibition assay was performed by using an RT assay kit produced by Roche (Basel, Switzerland).
The biotin-labeled dNTPs were incorporated into the cDNA chain in the presence of RT and bound to streptavidin. The washing buffer was used to wash the unbound dNTPs and add the anti-DIG-POD to the MTPs.
The peroxide substrate (ABST) solution was added to the MTPs, when the unbound anti-DIG-PODs were washed out. […] The absorbance of the sample was determined at OD405 nm using a microtiter plate ELISA reader. The percentage inhibitory activity of RT inhibitors was calculated according to the following formula: % inhibition = [O.D. value with RT but without inhibitors − O.D. value with RT and inhibitors]/[O.D. value with RT and inhibitors − O.D. value without RT and inhibitors].

[11] = mock-infected MT-4 cells, MTT method, read-out: CC50

SMILES | EC50 [1] | EC50 [4] | EC50 [5] | EC50 [6] | EC50 [7] | RF RES056 [7] | EC50 [8] | RF IIIB [8] | CC50 at 5 days [9] | SI RES056 [7] | SI IIIB [8] | melting point | further results
Cc1cc(C#N)cc(C)c1Oc1nc(Nc2ccc(B3OC(C)(C)C(C)(C)O3)cc2)nc2ccsc12 [Compound 3a, 3,5-Dimethyl-4-((2-((4-(4,4,5,5-tetramethyl-1,3,2-dioxaborolan-2-yl)phenyl)amino)thieno [3,2-d]pyrimidin-4-yl)oxy)benzonitrile] | 193 ± 77 nM | 2510 ± 155 nM | 6290 ± 3270 nM | 6020 ± 3140 nM | > 27400 nM | > 431 | 64 ± 21 nM | 1.0 | 27400 ± 1200 nM | – | – | – | RF E138K [1]: 3.0; EC50 [2]: 4950 ± 1980 nM; RF F227L + V106A [2]: 77.8; EC50 [3]: 81 ± 8 nM; RF K103N [3]: 1.3; RF L100I [4]: 39.4; RF Y181C [5]: 98.8; RF Y188L [6]: 94.7; IC50 [10]: 354 ± 43 nM
Cc1cc(C#N)cc(C)c1Oc1nc(Nc2ccc(B3OC(C)(C)C(C)(C)O3)cc2)nc2sccc12 [Compound 3b, 3,5-Dimethyl-4-((2-((4-(4,4,5,5-tetramethyl-1,3,2-dioxaborolan-2-yl)phenyl)amino)thieno [2,3-d]pyrimidin-4-yl)oxy)benzonitrile] | – | – | – | – | 174000 ± 34500 nM | 134 | 1300 ± 275 nM | 1.0 | > 254000 nM | – | – | – | –
Cc1cc(C#N)cc(C)c1Oc1nc(Nc2ccc(B3OC(C)(C)C(C)(C)O3)cc2)nc2ncsc12 [Compound 3d, 3,5-Dimethyl-4-((5-((4-(4,4,5,5-tetramethyl-1,3,2-dioxaborolan-2-yl)phenyl)amino)thiazolo [4,5-d]pyrimidin-7-yl)oxy)benzonitrile] | – | – | – | – | > 24100 nM | > 201 | 120 ± 56 nM | 1.0 | 24100 ± 3760 nM | < 1 | 201 | 117 to 119 °C | –
Cc1cc(C#N)cc(C)c1Oc1nc(Nc2ccc(B3OC(C)(C)C(C)(C)O3)cc2)nc2scnc12 [Compound 3e, 3,5-Dimethyl-4-((5-((4-(4,4,5,5-tetramethyl-1,3,2-dioxaborolan-2-yl)phenyl)amino)thiazolo [5,4-d]pyrimidin-7-yl)oxy)benzonitrile] | – | – | – | – | > 26500 nM | > 123 | 215 ± 91 nM | 1.0 | 26500 ± 1780 nM | – | – | – | –
Cc1cc(C#N)cc(C)c1Oc1ccnc(Nc2ccc(B3OC(C)(C)C(C)(C)O3)cc2)n1 [Compound 3f, 3,5-Dimethyl-4-((2-((4-(4,4,5,5-tetramethyl-1,3,2-dioxaborolan-2-yl)phenyl)amino)pyrimidin-4-yl)oxy)benzonitrile] | – | – | – | – | > 30600 nM | > 206 | 149 ± 49 nM | 1.0 | 30600 ± 1920 nM | < 1 | 206 | 202 to 204 °C | –
Cc1cc(C#N)cc(C)c1Oc1nc(Nc2ccc(B3OC(C)(C)C(C)(C)O3)cc2)nc2ccccc12 [Compound 3g, 3,5-Dimethyl-4-((2-((4-(4,4,5,5-tetramethyl-1,3,2-dioxaborolan-2-yl)phenyl)amino)quinazolin-4-yl)oxy)benzonitrile] | – | – | – | – | > 254000 nM | > 41.1 | 6170 ± 1830 nM | 1.0 | > 254000 nM | – | > 41 | 147 to 149 °C | –
Cc1cc(C#N)cc(C)c1Oc1nc(Nc2ccc(B3OC(C)(C)C(C)(C)O3)cc2)nc2cccnc12 [Compound 3h, 3,5-Dimethyl-4-((2-((4-(4,4,5,5-tetramethyl-1,3,2-dioxaborolan-2-yl)phenyl)amino)pyrido [3,2-d]pyrimidin-4-yl)oxy)benzonitrile] | – | – | – | – | > 26000 nM | > 232 | 112 ± 24 nM | 1.0 | 26000 ± 2330 nM | < 1 | 232 | 177 to 179 °C | fold more potent than 3g [8]: 55 fold
Cc1cc(C#N)cc(C)c1Oc1nc(Nc2ccc(B3OC(C)(C)C(C)(C)O3)cc2)nc2c1CCCC2 [Compound 3i, 3,5-Dimethyl-4-((2-((4-(4,4,5,5-tetramethyl-1,3,2-dioxaborolan-2-yl)phenyl)amino) -5,6,7,8-tetrahydroquinazolin-4-yl)oxy)benzonitrile] | – | – | – | – | > 27700 nM | > 145 | 191 ± 88 nM | 1.0 | 27700 ± 1270 nM | < 1 | 145 | 233 to 235 °C | –
Cc1cc(C#N)cc(C)c1Oc1nc(Nc2ccc(B3OC(C)(C)C(C)(C)O3)cc2)nc2c1SCCC2 [Compound 3j, 3,5-Dimethyl-4-((2-((4-(4,4,5,5-tetramethyl-1,3,2-dioxaborolan-2-yl)phenyl)amino) -7,8-dihydro-6H-thiopyrano [3,2-d]pyrimidin-4-yl)oxy)benzonitrile] | – | – | – | – | > 25900 nM | > 184 | 141 ± 53 nM | 1.0 | 25900 ± 1410 nM | < 1 | 184 | 201 to 203 °C | –
O=C1Nc2ccc(Cl)cc2[C@@](C#CC2CC2)(C(F)(F)F)O1 [EFV, efavirenz, reference compound] | 6 ± 2 nM | 32 ± 8 nM | 5 ± 2 nM | 261 ± 118 nM | 337 ± 149 nM | – | 3 ± 1 nM | – | – | – | – | – | EC50 [3]: 71 ± 20 nM; CC50 at 5 days [9, 11]: > 6350 nM
Cc1cc(C#N)cc(C)c1Oc1nc(Nc2ccc(C#N)cc2)nc(N)c1Br [ETR, etravirine, reference compound] | 10 ± 5 nM | 8 ± 2 nM | 16 ± 5 nM | 19 ± 7 nM | 61 ± 34 nM | – | 4 ± 1 nM | – | > 4600 nM | – | – | – | EC50 [2]: 26 ± 17 nM; EC50 [3]: 3 ± 8 nM
Cc1ccnc2c1NC(=O)c1cccnc1N2C1CC1 [NVP, nevirapine, reference compound] | 168 nM | 623 ± 277 nM | 5060 ± 922 nM | 9080 ± 2410 nM | > 15000 nM | 99.9 | 151 ± 37 nM | 1.0 | – | – | – | – | RF E138K [1]: 1.1; EC50 [2]: 8050 ± 3540 nM; RF F227L + V106A [2]: 53.5; RF K103N [3]: 26.1; RF L100I [4]: 4.1; RF Y181C [5]: 33.6; RF Y188L [6]: 60.4; CC50 at 5 days [9, 11]: > 15000 nM
